Reference: the supplement of paper PMC13380429

Columns and labels:
Conditions in all cases: 72 h
Vero E6 [1] = test: cell viability relative to DMSO; higher = less toxic
HepG2 [2] = test: as above
U2OS [3] = test: as above
Caco-2 [4] = test: as above
Calu-3 [5] = test: as above
Vero E6 [6] = test: relative viability EC50 (midpoint between 100% and the lowest measured viability); higher = less toxic
HepG2 [7] = test: as above
U2OS [8] = test: as above
Caco-2 [9] = test: as above
Calu-3 [10] = test: as above
Vero E6 [11] = test: drug sensitivity score (DSS) for viability; higher = more toxic; extreme values may be limits of the assay
HepG2 [12] = test: as above
U2OS [13] = test: as above
Caco-2 [14] = test: as above
Calu-3 [15] = test: as above

Q: `CC(=O)OCC(CCn1cnc2cnc(N)nc21)COC(C)=O` [famciclovir] was tested. Which cell viability (Vero E6 [1]; 1 nM) did it give?
A: 99.7%

Q: What about the cell viability (Vero E6 [1]; 10 nM) of the same molecule?
A: 102%

Q: What about the cell viability (Vero E6 [1]; 100 nM) of the same molecule?
A: 98.7%

Q: And the cell viability (Vero E6 [1]; 1000 nM)?
A: 96.9%

Q: What about the cell viability (Vero E6 [1]; 10000 nM) of the same molecule?
A: 100%

Q: And the cell viability (HepG2 [2]; 1 nM)?
A: 103%

Q: What about the cell viability (HepG2 [2]; 10 nM) of the same molecule?
A: 98.4%

Q: What about the cell viability (HepG2 [2]; 100 nM) of the same molecule?
A: 103%

Q: What about the cell viability (HepG2 [2]; 1000 nM) of the same molecule?
A: 96.8%

Q: What about the cell viability (HepG2 [2]; 10000 nM) of the same molecule?
A: 100%

Q: And the cell viability (U2OS [3]; 1 nM)?
A: 100%

Q: And the cell viability (U2OS [3]; 10 nM)?
A: 104%

Q: And the cell viability (U2OS [3]; 100 nM)?
A: 95%

Q: What about the cell viability (U2OS [3]; 1000 nM) of the same molecule?
A: 102%

Q: What about the cell viability (U2OS [3]; 10000 nM) of the same molecule?
A: 95.5%

Q: What about the cell viability (Caco-2 [4]; 1 nM) of the same molecule?
A: 91.3%

Q: What about the cell viability (Caco-2 [4]; 10 nM) of the same molecule?
A: 101%

Q: What about the cell viability (Caco-2 [4]; 100 nM) of the same molecule?
A: 105%

Q: And the cell viability (Caco-2 [4]; 1000 nM)?
A: 87.4%

Q: What about the cell viability (Caco-2 [4]; 10000 nM) of the same molecule?
A: 82.8%

Q: What about the cell viability (Calu-3 [5]; 1 nM) of the same molecule?
A: 104%

Q: And the cell viability (Calu-3 [5]; 10 nM)?
A: 99.4%

Q: And the cell viability (Calu-3 [5]; 100 nM)?
A: 91.1%

Q: What about the cell viability (Calu-3 [5]; 1000 nM) of the same molecule?
A: 106%

Q: And the cell viability (Calu-3 [5]; 10000 nM)?
A: 93.9%

Q: What about the “relative viability EC50” value (Vero E6 [6]) of the same molecule?
A: > 10 µM

Q: What about the “relative viability EC50” value (HepG2 [7]) of the same molecule?
A: > 10 µM

Q: What about the “relative viability EC50” value (U2OS [8]) of the same molecule?
A: > 10 µM

Q: What about the “relative viability EC50” value (Caco-2 [9]) of the same molecule?
A: > 10 µM

Q: What about the “relative viability EC50” value (Calu-3 [10]) of the same molecule?
A: > 10 µM

Q: What about the drug sensitivity score (Vero E6 [11]) of the same molecule?
A: 0

Q: And the drug sensitivity score (HepG2 [12])?
A: 0

Q: What about the drug sensitivity score (U2OS [13]) of the same molecule?
A: 0

Q: What about the drug sensitivity score (Caco-2 [14]) of the same molecule?
A: 1.4

Q: And the drug sensitivity score (Calu-3 [15])?
A: 0

Q: Which results are given for `CCCC(=O)N1CCCN(c2nc(N)c3cc(OC)c(OC)cc3n2)CC1` [bunazosin]?
A: cell viability (Vero E6 [1]; 1 nM): 104%; cell viability (Vero E6 [1]; 10 nM): 105%; cell viability (Vero E6 [1]; 100 nM): 102%; cell viability (Vero E6 [1]; 1000 nM): 99.3%; cell viability (Vero E6 [1]; 10000 nM): 97.3%; cell viability (HepG2 [2]; 1 nM): 94.7%; cell viability (HepG2 [2]; 10 nM): 99.3%; cell viability (HepG2 [2]; 100 nM): 103%; cell viability (HepG2 [2]; 1000 nM): 94.3%; cell viability (HepG2 [2]; 10000 nM): 99.3%; cell viability (U2OS [3]; 1 nM): 95.4%; cell viability (U2OS [3]; 10 nM): 103%; cell viability (U2OS [3]; 100 nM): 101%; cell viability (U2OS [3]; 1000 nM): 96.7%; cell viability (U2OS [3]; 10000 nM): 98.2%; cell viability (Caco-2 [4]; 1 nM): 108%; cell viability (Caco-2 [4]; 10 nM): 96.4%; cell viability (Caco-2 [4]; 100 nM): 101%; cell viability (Caco-2 [4]; 1000 nM): 101%; cell viability (Caco-2 [4]; 10000 nM): 99.7%; cell viability (Calu-3 [5]; 1 nM): 102%; cell viability (Calu-3 [5]; 10 nM): 101%; cell viability (Calu-3 [5]; 100 nM): 105%; cell viability (Calu-3 [5]; 1000 nM): 92%; cell viability (Calu-3 [5]; 10000 nM): 115%; relative viability EC50 (Vero E6 [6]): > 10 µM; relative viability EC50 (HepG2 [7]): > 10 µM; relative viability EC50 (U2OS [8]): > 10 µM; relative viability EC50 (Caco-2 [9]): > 10 µM; relative viability EC50 (Calu-3 [10]): > 10 µM; drug sensitivity score (Vero E6 [11]): 0; drug sensitivity score (HepG2 [12]): 0; drug sensitivity score (U2OS [13]): 0; drug sensitivity score (Caco-2 [14]): 0; drug sensitivity score (Calu-3 [15]): 0

Q: With `C=CCNc1c(O)cc2c(O)c1C[C@@H](C)C[C@H](OC)[C@H](O)[C@@H](C)/C=C(\C)[C@H](OC(N)=O)[C@@H](OC)/C=C\C=C(/C)C(=O)N2` [retaspimycin] as the molecule, how does the cell viability (Vero E6 [1]; 1 nM) read?
A: 99.3%

Q: What about the cell viability (Vero E6 [1]; 10 nM) of the same molecule?
A: 100%

Q: And the cell viability (Vero E6 [1]; 100 nM)?
A: 104%

Q: And the cell viability (Vero E6 [1]; 1000 nM)?
A: 53.3%

Q: What about the cell viability (Vero E6 [1]; 10000 nM) of the same molecule?
A: 25.5%

Q: And the cell viability (HepG2 [2]; 1 nM)?
A: 97.3%

Q: What about the cell viability (HepG2 [2]; 10 nM) of the same molecule?
A: 95.6%

Q: What about the cell viability (HepG2 [2]; 100 nM) of the same molecule?
A: 6.2%

Q: And the cell viability (HepG2 [2]; 1000 nM)?
A: 1.8%

Q: And the cell viability (HepG2 [2]; 10000 nM)?
A: 2.9%

Q: And the cell viability (U2OS [3]; 1 nM)?
A: 96.5%

Q: And the cell viability (U2OS [3]; 10 nM)?
A: 99%

Q: And the cell viability (U2OS [3]; 100 nM)?
A: 88%

Q: What about the cell viability (U2OS [3]; 1000 nM) of the same molecule?
A: 5.2%

Q: And the cell viability (U2OS [3]; 10000 nM)?
A: 2.1%

Q: What about the cell viability (Caco-2 [4]; 1 nM) of the same molecule?
A: 92.1%

Q: And the cell viability (Caco-2 [4]; 10 nM)?
A: 101%

Q: What about the cell viability (Caco-2 [4]; 100 nM) of the same molecule?
A: 94%

Q: And the cell viability (Caco-2 [4]; 1000 nM)?
A: 60%

Q: What about the cell viability (Caco-2 [4]; 10000 nM) of the same molecule?
A: 27.8%

Q: What about the cell viability (Calu-3 [5]; 1 nM) of the same molecule?
A: 94.2%

Q: And the cell viability (Calu-3 [5]; 10 nM)?
A: 89.1%

Q: What about the cell viability (Calu-3 [5]; 100 nM) of the same molecule?
A: 84.5%

Q: What about the cell viability (Calu-3 [5]; 1000 nM) of the same molecule?
A: 46.2%

Q: And the cell viability (Calu-3 [5]; 10000 nM)?
A: 41.2%

Q: And the “relative viability EC50” value (Vero E6 [6])?
A: 0.815 µM

Q: And the “relative viability EC50” value (HepG2 [7])?
A: 0.0315 µM

Q: And the “relative viability EC50” value (U2OS [8])?
A: 0.232 µM

Q: And the “relative viability EC50” value (Caco-2 [9])?
A: 0.819 µM

Q: And the “relative viability EC50” value (Calu-3 [10])?
A: 0.199 µM

Q: And the drug sensitivity score (Vero E6 [11])?
A: 9.7

Q: And the drug sensitivity score (HepG2 [12])?
A: 30

Q: And the drug sensitivity score (U2OS [13])?
A: 19.2

Q: And the drug sensitivity score (Caco-2 [14])?
A: 8.8

Q: What about the drug sensitivity score (Calu-3 [15]) of the same molecule?
A: 11.5

Q: How did the cell viability (Vero E6 [1]; 1 nM) turn out when `O[C@@H](CN1CCC(Cc2ccc(F)cc2)CC1)c1ccc(Cl)cc1` (racemic) [eliprodil] was run?
A: 98.8%

Q: And the cell viability (Vero E6 [1]; 10 nM)?
A: 92%

Q: And the cell viability (Vero E6 [1]; 100 nM)?
A: 98.8%

Q: And the cell viability (Vero E6 [1]; 1000 nM)?
A: 98.1%

Q: And the cell viability (Vero E6 [1]; 10000 nM)?
A: 105%

Q: And the cell viability (HepG2 [2]; 1 nM)?
A: 96.6%

Q: What about the cell viability (HepG2 [2]; 10 nM) of the same molecule?
A: 99.7%

Q: What about the cell viability (HepG2 [2]; 100 nM) of the same molecule?
A: 97.8%

Q: And the cell viability (HepG2 [2]; 1000 nM)?
A: 87.6%

Q: And the cell viability (HepG2 [2]; 10000 nM)?
A: 108%

Q: And the cell viability (U2OS [3]; 1 nM)?
A: 91.1%

Q: And the cell viability (U2OS [3]; 10 nM)?
A: 93.3%

Q: And the cell viability (U2OS [3]; 100 nM)?
A: 87.3%

Q: And the cell viability (U2OS [3]; 1000 nM)?
A: 87.9%

Q: And the cell viability (U2OS [3]; 10000 nM)?
A: 97.6%

Q: And the cell viability (Caco-2 [4]; 1 nM)?
A: 100%

Q: And the cell viability (Caco-2 [4]; 10 nM)?
A: 96.2%

Q: And the cell viability (Caco-2 [4]; 100 nM)?
A: 101%

Q: And the cell viability (Caco-2 [4]; 1000 nM)?
A: 103%

Q: What about the cell viability (Caco-2 [4]; 10000 nM) of the same molecule?
A: 104%

Q: What about the cell viability (Calu-3 [5]; 1 nM) of the same molecule?
A: 99.2%

Q: What about the cell viability (Calu-3 [5]; 10 nM) of the same molecule?
A: 95.2%

Q: And the cell viability (Calu-3 [5]; 100 nM)?
A: 106%

Q: And the cell viability (Calu-3 [5]; 1000 nM)?
A: 92.3%

Q: And the cell viability (Calu-3 [5]; 10000 nM)?
A: 104%

Q: And the “relative viability EC50” value (Vero E6 [6])?
A: > 10 µM

Q: And the “relative viability EC50” value (HepG2 [7])?
A: > 10 µM

Q: And the “relative viability EC50” value (U2OS [8])?
A: > 10 µM

Q: What about the “relative viability EC50” value (Caco-2 [9]) of the same molecule?
A: > 10 µM

Q: What about the “relative viability EC50” value (Calu-3 [10]) of the same molecule?
A: > 10 µM

Q: And the drug sensitivity score (Vero E6 [11])?
A: 0

Q: What about the drug sensitivity score (HepG2 [12]) of the same molecule?
A: 0

Q: What about the drug sensitivity score (U2OS [13]) of the same molecule?
A: 0

Q: What about the drug sensitivity score (Caco-2 [14]) of the same molecule?
A: 0

Q: What about the drug sensitivity score (Calu-3 [15]) of the same molecule?
A: 0
